According to patent US20200138829A1, “METHODS OF CANCER TREATMENT” (Ferro Therapeutics, Inc., priority 2017, published 2020):
Where a name gives a salt, the structure may show the parent alone. Read-outs that look alike come from different tables or passages of the source. * marks the point of attachment. Cbz = O=C(OCc1ccccc1)*; CH2F = FC*

Key:
[1] = test system: A549, MiaPaCa-2, and KP-4; test: Cell viability assay, comparison across A549, MiaPaCa-2 and KP-4; type: cell-based; settings: single agent
Experimental: (§1) Cell viability assay was performed to assess the potency of the ferroptosis inducer compounds in various cancer cell lines with K-Ras mutations. Cells at a density of 1,000-10,000 cells/well were seeded in 96-well plates and incubated at 37° C. overnight. A series of 9 different concentrations of compound stocks (500×) were created by 3-fold serial dilution in DMSO. These compounds were further diluted in culture media and then added to cells so that the final DMSO concentration was equal to 0.25% or less. After 96 hours of incubation, 50 μL of CellTiter Glo reagent (Promega) was added to each well and luminescence was measured after 10 minutes using EnVision (PerkinElmer). K101A (a PKC activator) was used as the reference compound titrated from top concentration of 30 μM. All compounds were tested initially from 30 μM as the top concentration in duplicates (range of 4.6 nM-30 μM). […] Data was analyzed using XL-fit software (ID Business Solutions Ltd.). IC50, relative IC50, or % of top inhibition was calculated.

KP-4 cells [2] = test: Effect of ferroptosis or apoptosis inhibitor on RSL3- or Erastin-induced cell death, KP-4; settings: KP-4; for effect on cell death induced by RSL3 or Erastin: co-treatment
Experimental: as §1
Ferroptosis inhibitors include: Ferrostatin-1 and Liproxstatin-1, inhibitors of ROS accumulation; Deferoxamine, an iron chelator; and PD146176, a 15-lipoxygenase inhibitor (see, e.g., Hofman et al., 2016, J Med Chem. March 10; 59(5):2041-53; Yang et al., 2016 Cell 26(3):165-176). The apoptosis inhibitor chosen was ZVAD (see, e.g. Wu et al., 2011, Cell Death and Differentiation 18:26-37). Ferroptosis inhibitors and ZVAD were first titrated as a single agent as shown in Example 1.

A549 cells [3] = test: Effect of ferroptosis or apoptosis inhibitor on RSL3- or Erastin-induced cell death, A549; settings: A549; ZVAD
Experimental: as §1
Ferroptosis inhibitors include: Ferrostatin-1 and Liproxstatin-1, inhibitors of ROS accumulation; Deferoxamine, an iron chelator; and PD146176, a 15-lipoxygenase inhibitor (see, e.g., Hofman et al., 2016, J Med Chem. March 10; 59(5):2041-53; Yang et al., 2016 Cell 26(3):165-176). […]

[4] = test system: A549 lung cancer cell line; test: Cell viability assay (CellTiter Glo), A549; type: cell-based
Experimental: (§2) Cell viability assay was performed to assess the potency of the ferroptosis inducer compounds in various cancer cell lines with K-Ras mutations. […] A series of 9 different concentrations of compound stocks (500×) were created by 3-fold serial dilution in DMSO. […] After 96 hours of incubation, 50 μL of CellTiter Glo reagent (Promega) was added to each well and luminescence was measured after 10 minutes using EnVision (PerkinElmer). […] […] IC50, relative IC50, or % of top inhibition was calculated.

A549 cells [5] = test: Combination proliferation assay with PKC activator, A549; type: cell-based; settings: inducer at concentration with minimal or no effect alone
Experimental: as §1
(§3) Therefore, whether PKC activators synergize or antagonize with ferroptosis inducers can be tested empirically.

Panc2.13 cells [6] = test: Combination proliferation assay with PKC activator, Panc2.13; type: cell-based
Experimental: as §1, §3

[7] = test system: KP-4 pancreatic cancer cell line; test: Cell viability assay (CellTiter Glo), KP-4; type: cell-based; settings: for selectivity for KP-4 over A549: KP-4 versus A549
Experimental: as §2

PSN-1 cells [8] = test: Cell viability assay (CellTiter Glo), PSN-1; type: cell-based; settings: PSN-1; 96 hours of incubation
Experimental: (§4) Cell viability assay was performed to assess the potency of the ferroptosis inducer compounds in various cancer cell lines with K-Ras mutations. […] A series of 9 different concentrations of compound stocks (500×) were created by 3-fold serial dilution in DMSO. […] After 96 hours of incubation, 50 μL of CellTiter Glo reagent (Promega) was added to each well and luminescence was measured after 10 minutes using EnVision (PerkinElmer). […] IC50, relative IC50, or % of top inhibition was calculated. Next, RSL3, ML210, Erastin, and Auranofin were tested on additional K-RAS mutant pancreatic cell lines (Panc1, Panc6.03, Panc2.13, PSN-1, and Capan-1) in Table 1.

Capan-1 cells [9] = test: Cell viability assay (CellTiter Glo), Capan-1; type: cell-based
Experimental: as §4

PSN-1 cells [10] = test: Combination proliferation assay with PKC activator, PSN-1; type: cell-based
Experimental: as §1, §3

KP-4 cells [11] = test: Combination proliferation assay with PKC activator, KP-4; type: cell-based
Experimental: as §1, §3

Panc2.13 cells [12] = test: Cell viability assay (CellTiter Glo), Panc2.13; type: cell-based; settings: Panc2.13 versus A549
Experimental: as §4

[13] = test system: K-RAS mutant pancreatic cell lines; test: Cell viability assay, several pancreatic cell lines compared with A549; type: cell-based; settings: for potency in the pancreatic cell lines relative to A549 (in words): MiaPaCa-2 and KP-4 versus A549
Experimental: as §4

Panc1 cells = test: Combination proliferation assay with PKC activator, Panc1; type: cell-based
Experimental: as §1, §3

Capan-1 cells [14] = test: Combination proliferation assay with PKC activator, Capan-1; type: cell-based
Experimental: as §1, §3

Mino cell line = test: Combination proliferation assay with PKC activator, Mino; type: cell-based
Experimental: as §1, §3
(§5) Therefore, it is of interest to test combination treatment of both classes of compounds in lymphoma cells.

Namalwa cell line = test: Combination proliferation assay with PKC activator, Namalwa; type: cell-based
Experimental: as §1, §3, §5

[15] = test system: MiaPaCa-2 pancreatic cancer cell line; test: Cell viability assay (CellTiter Glo), MiaPaCa-2; type: cell-based; settings: Homo sapiens, MIA PaCa-2, 96 hours of incubation
Experimental: as §2

Compound: Clc1cccc(CN=C2Nc3ccccc3NC23CCNCC3)c1 [Liproxstatin-1]
- differential activity among three cell lines [1]: do not show differential activity
- potency in blocking cell proliferation (in words) [1]: not potent
- effect on cell death induced by RSL3 or Erastin (KP-4 cells [2]; Liproxstatin-1 at 304): completely abrogated cell death

Compound: Cbz-Val-Ala-Asp-CH2F
- differential activity among three cell lines [1]: do not show differential activity
- potency in blocking cell proliferation (in words) [1]: not potent
- effect on RSL3- or Erastin-induced cell death (KP-4 cells [2]; ZVAD at 30 μM): did not rescue
- effect on RSL3- or Erastin-induced cell death (A549 cells [3]): did not rescue

Compound: C=CCNc1nc(NCC=C)nc(N2CCN(C(c3ccc(F)cc3)c3ccc(F)cc3)CC2)n1 [Almitrine]
- potency of inhibition of A549 cells (in words) [4]: very weak inhibitors

Compound: O=C(O)c1cc(/N=N/c2ccc(S(=O)(=O)Nc3ccccn3)cc2)ccc1O [Sulfasalazine]
- synergy with K101A or K102 to block proliferation (A549 cells [5]): No synergy
- synergy with K101A or K102 to block proliferation (Panc2.13 cells [6]): did not synergize

Compound: CO[C@H]1O[C@@H]2O[C@@]3(C)CC[C@H]4[C@H](C)CC[C@@H]([C@H]1C)[C@@]24OO3 [Artemether]
- selectivity for KP-4 over A549 [7]: > 5 fold

Compound: CC(=O)N(O)CCCCCNC(=O)CCC(=O)N(O)CCCCCNC(=O)CCC(=O)N(O)CCCCCN [Deferoxamine mesylate]
- differential activity among three cell lines [1]: do not show differential activity
- potency in blocking cell proliferation (in words) [1]: not potent
- effect on RSL3- or Erastin-induced cell death (KP-4 cells [2]; Deferoxamine): did not rescue

Compound: CN(C)c1nc(N(C)C)nc(N(C)C)n1 [Altretamine]
- potency of inhibition of A549 cells (in words) [4]: very weak inhibitors

Compound: CCOC(=O)c1ccc(NC2CCCCC2)c(N)c1 [Ferrostatin-1]
- differential activity among three cell lines [1]: do not show differential activity
- potency in blocking cell proliferation (in words) [1]: not potent
- effect on cell death induced by RSL3 or Erastin (KP-4 cells [2]; Ferrostatin-1 at 3 μM): completely abrogated cell death

Compound: Buthionine sulfoximine [BSO]
- effect on A549 cells ([4]; at very high concentration (>1 mM)): minimal effects

Compound: C/C=C(/C)C(=O)O[C@H]1C(C)=C[C@]23C(=O)[C@@H](C=C(CO)[C@@H](O)[C@]12O)[C@H]1[C@@H](C[C@H]3C)C1(C)C [K102, ingenol-3-angelate]
- % of top inhibition by K101A or K102 without ferroptosis inducer (Panc2.13 cells [6]): ~60%

Compound: c1ccc2c(c1)SCc1c-2[nH]c2ccccc12 [PD146176]
- differential activity among three cell lines [1]: do not show differential activity
- potency in blocking cell proliferation (in words) [1]: not potent
- effect on RSL3- or Erastin-induced cell death (KP-4 cells [2]; PD146176 at 0.504): partially reversed

Compound: Dihydroartemisinin
- IC50 (PSN-1 cells [8]): 540 nM
- IC50 (Capan-1 cells [9]; Capan-1, 96 hours of incubation): 2150 nM
- synergy with K101A (PKC activators) to block proliferation (PSN-1 cells [10]): no synergy
- synergy when combined with K101A or K102 (KP-4 cells [11]): moderate/minor synergy

Compound: Cc1onc(C(=O)N2CCN(C(c3ccc(Cl)cc3)c3ccc(Cl)cc3)CC2)c1[N+](=O)[O-] [ML210]
- selectivity in comparison to A549 (Panc2.13 cells [12]): no selectivity
- selectivity in comparison to A549 (Capan-1 cells [9]; Capan-1 versus A549): no selectivity
- potency in the pancreatic cell lines relative to A549 (in words) [13]: at least two orders of magnitude more potent
- sensitivity in comparison to A549 ([13]; range over Panc1, Panc6.03, and PSN-1): 8-30 fold
- synergy with K101A or K102 to block proliferation (A549 cells [5]): minor synergy
- effect on the potency of K101A or K102 (Panc1 cells): increasing the potency
- synergy with K101A or K102 to block proliferation (Panc1 cells): synergized
- % of top inhibition by K101A or K102 in combination with the ferroptosis inducer (Panc2.13 cells [6]): ~80%
- effect on the potency of K101A or K102 (Panc2.13 cells [6]): increased the potency
- synergy with K101A or K102 to block proliferation (Panc2.13 cells [6]): synergized
- synergy with K101A (PKC activators) to block proliferation (PSN-1 cells [10]): synergized
- % of top inhibition by K101A or K102 in combination with the ferroptosis inducer (Capan-1 cells [14]): ~80%
- effect on the potency of K101A or K102 (Capan-1 cells [14]): increased the potency
- synergy with K101A or K102 to block proliferation (Capan-1 cells [14]): synergized strongly
- synergy when combined with K101A or K102 (KP-4 cells [11]): no synergy
- synergy when combined with K101A or K102 (Mino cell line): minor synergy

Compound: CC[P](CC)(CC)=[Au][S]C1OC(COC(C)=O)C(OC(C)=O)C(CC(C)=O)C1OC(C)=O (stereo not shown)
- synergy with K101A or K102 to block proliferation (A549 cells [5]): No synergy
- synergy with K101A or K102 to block proliferation (Panc1 cells; inducer up to 1 μM): No synergistic effects
- synergy with K101A or K102 to block proliferation (Panc2.13 cells [6]): did not synergize
- synergy with K101A or K102 to block proliferation (Capan-1 cells [14]): did not synergize
- synergy when combined with K101A or K102 (KP-4 cells [11]): no synergy
- synergy when combined with K101A or K102 (Mino cell line): moderate synergy
- synergy when combined with K101A or K102 (Namalwa cell line): minor synergy

Compound: CC(=O)O[C@@]12C[C@@H](C)[C@@]3(O)[C@@H](C=C(CO)C[C@]4(O)C(=O)C(C)=C[C@@H]34)[C@@H]1C2(C)C [K101A, 12-deoxyphorbol 13-acetate]
- % of top inhibition by K101A or K102 without ferroptosis inducer (Panc2.13 cells [6]): ~60%

Compound: C[C@H]1[C@H](OC(=O)CCC(=O)O)O[C@@H]2O[C@@]3(C)CC[C@H]4[C@H](C)CC[C@@H]1[C@@]24OO3 [Artesunate]
- synergy when combined with K101A or K102 (KP-4 cells [11]): moderate/minor synergy

Compound: COC(=O)c1ccc([C@H]2c3[nH]c4ccccc4c3C[C@H](C(=O)OC)N2C(=O)CCl)cc1 [RSL3]
- IC50 ([4]; Homo sapiens, A549 lung cancer cell line, 96 hours of incubation): 1880 nM
- IC50 [15]: 8 nM
- IC50 ([7]; Pancreatic cancer cell, KP-4, 96 hours of incubation): 2 nM
- potency in the pancreatic cell lines relative to A549 (in words) [13]: two to three orders of magnitude more potent
- selective cell death in comparison to A549 ([13]; range over all five lines Panc1, Panc6.03, Panc2.13, PSN-1, Capan-1): 2-26 fold
- synergy with K101A or K102 to block proliferation (A549 cells [5]): synergized strongly
- effect on the potency of K101A or K102 (Panc1 cells): increasing the potency
- synergy with K101A or K102 to block proliferation (Panc1 cells): synergized
- % of top inhibition by K101A or K102 in combination with the ferroptosis inducer (Panc2.13 cells [6]): ~80%
- effect on the potency of K101A or K102 (Panc2.13 cells [6]): increased the potency
- synergy with K101A or K102 to block proliferation (Panc2.13 cells [6]): synergized
- synergy with K101A (PKC activators) to block proliferation (PSN-1 cells [10]): synergized
- % of top inhibition by K101A or K102 in combination with the ferroptosis inducer (Capan-1 cells [14]): ~80%
- effect on the potency of K101A or K102 (Capan-1 cells [14]): increased the potency
- synergy with K101A or K102 to block proliferation (Capan-1 cells [14]): synergized strongly
- synergy when combined with K101A or K102 (KP-4 cells [11]): only additive effects
- effect of addition to K101A or K102 on potency and % of top inhibition (Namalwa cell line): improved potency and % of top inhibition

Compound: COc1ccc(N(C(=O)CCl)C(C(=O)NCCc2ccccc2)c2cccs2)cc1Cl (stereo not shown) [ML162]
- selectivity for KP-4 over A549 [7]: > 80 fold
